The subject of one series is S. aureus ATCC 25923. Format: cell-based, Staphylococcus aureus. As for the experimental part:
(§1) The antibacterial activity of the peptoids was evaluated against gram‐positive (Staphylococcus aureus, ATCC 25 923) and gram‐negative (Escherichia coli, ATCC 25 922) bacteria. […] The MIC of each peptoid was determined using a broth dilution assay. For each assay, the primary culture of either S. aureus or E. coli was grown overnight in cation‐adjusted Mueller Hinton broth 2 (MHB2) media at 37 °C with shaking. A secondary culture was prepared the next day, grown for 3–4 h, and then diluted in MHB2 media with a final concentration of 0.001% acetic acid and 0.02% bovine serum albumin to obtain a calculated optical density (OD) of 0.001. This corresponded to ≈2–5 × 10^5 colony‐forming units (CFU mL^−1) of bacteria. Using 96‐well polypropylene plates (Eppendorf, Hamburg, Germany), 100 µL of 2–5 × 10^5 CFU mL^−1 bacteria were added in triplicate for each peptoid. Each peptoid was assayed at six different concentrations in two‐fold serial dilutions. The maximum peptoid concentration was 25 µM. […] The MIC value determination was performed in triplicate. The MIC was defined as the lowest peptoid concentration that prevented turbidity during visual inspection.

The test system of a further series is E. coli ATCC 25922. Format: cell-based, Escherichia coli. The conditions noted are these: ATCC 25922. As for the experimental part: as §1
For a further series, the system named is rat erythrocytes. The series can be described thus: Hemolysis assay. The series is classed as cell-based. A digest of the protocol:
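Washed Sprague-Dawley rat erythrocytes (10% suspension in PBS pH 7.4) mixed with peptoids (0–100 µM), 60 min at 37 °C; supernatant A540 expressed as % of 1% Triton X-100 lysis. HC10/HC50 are concentrations giving 10%/50% hemolysis; Hmax is hemolysis at 100 µM.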

Series [1] in a line: Analytical reversed-phase HPLC elution (hydrophobicity). Format: physicochemical. The conditions noted are these: Table 1; analytical RP-HPLC, SunFire C18 […] 250 mm, water/ACN + 0.1% TFA, 5% B 2 min then linear to 100% B over 30 min, 1 mL/min, UV 220 nm; used as measure of hydrophobicity. A digest of the protocol:
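Analytical reversed-phase HPLC on a C18 column (4.6 × 250 mm, 5 μm) at 1 mL/min, water/acetonitrile each with 0.1% TFA. Held at 5% B for 2 min, then linear to 100% B over 30 min and held 5 min, with UV detection at 220 nm; retention time (tR) serves as hydrophobicity measure.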

≈ marks a conversion by molar mass, not a printed value. Where a name gives a salt, the structure may show the parent alone. Read-outs that look alike come from different tables or passages of the source. Square brackets hold non-standard residues; d marks the D form. Peptide text beside a SMILES is read from it. Gly(N(CH2)2(3-indolyl)) = O=C(O)CNCCc1c[nH]c2ccccc12; Nspe = C[C@H](NCC(=O)O)c1ccccc1; Nlys = NCCCCNCC(=O)O

Consider `C[C@@H](c1ccccc1)N(CC(N)=O)C(=O)CN(CCCCN)C(=O)CN(CCCCN)C(=O)CN(C(=O)CN(C(=O)CN(CCCCN)C(=O)CN(C(=O)CN(C(=O)CN(CCCCN)C(=O)CN(CCc1c[nH]c2ccccc12)C(=O)CN(CCc1c[nH]c2ccccc12)C(=O)CNCCCCN)[C@@H](C)c1ccccc1)[C@@H](C)c1ccccc1)[C@@H](C)c1ccccc1)[C@@H](C)c1ccccc1` [32-HCl], for which, in the series on S. aureus ATCC 25923 (ATCC 25923), the “MIC S. aureus ATCC25923” value is given as 6.3 µM. Also, the “MIC E. coli ATCC25922” value against E. coli ATCC 25922 is listed as 6.3 µM. Besides, the “Hmax (100 µM)” value in the series on rat erythrocytes is 8.7±0.6%. In the series on rat erythrocytes (red cells of rat), this compound yielded an HC10 greater than 100 µM and an HC50 greater than 100 µM.
For the compound `C[C@@H](c1ccccc1)N(CC(=O)N(CCCCN)CC(=O)N(CC(=O)N(CC(=O)N(CCCCN)CC(=O)N(CC(=O)N(CC(=O)N(CCCCN)CC(=O)N(CCc1c[nH]c2ccccc12)CC(=O)N(CCc1c[nH]c2ccccc12)CC(N)=O)[C@@H](C)c1ccccc1)[C@@H](C)c1ccccc1)[C@@H](C)c1ccccc1)[C@@H](C)c1ccccc1)C(=O)CN(C(=O)CNCCCCN)[C@@H](C)c1ccccc1` [11-AcOH] (H-[Nlys][Nspe][Nspe][Nlys][Nspe][Nspe][Nlys][Nspe][Nspe][Nlys][Gly(N(CH2)2(3-indolyl))][Gly(N(CH2)2(3-indolyl))]-NH2), in the series on S. aureus ATCC 25923 (ATCC 25923), the “MIC S. aureus ATCC25923” value is on record as 1.6 µM (≈ 3.04 µg/mL). The “MIC E. coli ATCC25922” value against E. coli ATCC 25922 is recorded as 3.1 µM (≈ 5.88 µg/mL). The “Hmax (100 µM)” value with rat erythrocytes worked out at 110.4±0.2%. In the series with rat erythrocytes (red cells of rat), this compound came in with an HC10 of 8.7 µM and an HC50 of 29.7 µM.
Taken in the same sequence, the figures for `C[C@@H](c1ccccc1)N(CC(=O)N(CCCCN)CC(=O)N(CCc1c[nH]c2ccccc12)CC(=O)N(CCc1c[nH]c2ccccc12)CC(N)=O)C(=O)CN(CCCCN)C(=O)CN(CCCCN)C(=O)CN(C(=O)CN(C(=O)CN(CCCCN)C(=O)CN(C(=O)CN(C(=O)CNCCCCN)[C@@H](C)c1ccccc1)[C@@H](C)c1ccccc1)[C@@H](C)c1ccccc1)[C@@H](C)c1ccccc1` [29-AcOH] (H-[Nlys][Nspe][Nspe][Nlys][Nspe][Nspe][Nlys][Nlys][Nspe][Nlys][Gly(N(CH2)2(3-indolyl))][Gly(N(CH2)2(3-indolyl))]-NH2) were 12.5 µM (≈ 23.3 µg/mL), 6.3 µM (≈ 11.7 µg/mL), 5.2±0.2%, greater than 100 µM and greater than 100 µM.
On the same counts, the results for `C[C@@H](c1ccccc1)N(CC(N)=O)C(=O)CN(C(=O)CN(CCCCN)C(=O)CN(C(=O)CN(C(=O)CN(CCCCN)C(=O)CN(C(=O)CN(C(=O)CN(CCCCN)C(=O)CN(CCc1c[nH]c2ccccc12)C(=O)CN(C(=O)CNCCCCN)[C@@H](C)c1ccccc1)[C@@H](C)c1ccccc1)[C@@H](C)c1ccccc1)[C@@H](C)c1ccccc1)[C@@H](C)c1ccccc1)[C@@H](C)c1ccccc1` [10-HCl] are 3.1 µM, 6.3 µM, 81.5±7.4%, 15.3 µM and 37.8 µM.
On the same counts, the results for `C[C@@H](c1ccccc1)N(CC(=O)N(CCCCN)CC(=O)N(CCc1c[nH]c2ccccc12)CC(=O)N(CCc1c[nH]c2ccccc12)CC(N)=O)C(=O)CN(CCCCN)C(=O)CN(CCCCN)C(=O)CN(C(=O)CN(C(=O)CN(CCCCN)C(=O)CN(C(=O)CN(C(=O)CNCCCCN)[C@@H](C)c1ccccc1)[C@@H](C)c1ccccc1)[C@@H](C)c1ccccc1)[C@@H](C)c1ccccc1` [29-HCl] (H-[Nlys][Nspe][Nspe][Nlys][Nspe][Nspe][Nlys][Nlys][Nspe][Nlys][Gly(N(CH2)2(3-indolyl))][Gly(N(CH2)2(3-indolyl))]-NH2) are 12.5 µM, 12.5 µM, 4.3±0.3%, greater than 100 µM and greater than 100 µM.
For the compound `C[C@@H](c1ccccc1)N(CC(=O)N(CCCCN)CC(=O)N(CC(=O)N(CC(=O)N(CCCCN)CC(=O)N(CC(=O)N(CC(=O)N(CCCCN)CC(N)=O)[C@@H](C)c1ccccc1)[C@@H](C)c1ccccc1)[C@@H](C)c1ccccc1)[C@@H](C)c1ccccc1)C(=O)CN(C(=O)CN(CCCCN)C(=O)CN(CCc1c[nH]c2ccccc12)C(=O)CNCCc1c[nH]c2ccccc12)[C@@H](C)c1ccccc1` [37-HCl] (H-[Gly(N(CH2)2(3-indolyl))][Gly(N(CH2)2(3-indolyl))][Nlys][Nspe][Nspe][Nlys][Nspe][Nspe][Nlys][Nspe][Nspe][Nlys]-NH2), in the series on S. aureus ATCC 25923 (ATCC 25923), the “MIC S. aureus ATCC25923” value amounted to 3.1 µM. For the same compound, the “MIC E. coli ATCC25922” value with E. coli ATCC 25922 is reported as 6.3 µM. The “Hmax (100 µM)” value in the series with rat erythrocytes was found to be 86.6±5.7%. For the same compound, in the series on rat erythrocytes (red cells of rat), the HC10 is given as 14.4 µM and the HC50 was 56.5 µM.
Taken in the same sequence, the figures for `C[C@@H](c1ccccc1)N(CC(=O)N(CCCCN)CC(=O)N(CC(=O)N(CC(=O)N(CCCCN)CC(=O)N(CC(=O)N(CC(=O)N(CCCCN)CC(=O)N(CCc1c[nH]c2ccccc12)CC(=O)N(CCc1c[nH]c2ccccc12)CC(N)=O)[C@@H](C)c1ccccc1)[C@@H](C)c1ccccc1)[C@@H](C)c1ccccc1)[C@@H](C)c1ccccc1)C(=O)CN(C(=O)CNCCCCN)[C@@H](C)c1ccccc1` [11-HCl] (H-[Nlys][Nspe][Nspe][Nlys][Nspe][Nspe][Nlys][Nspe][Nspe][Nlys][Gly(N(CH2)2(3-indolyl))][Gly(N(CH2)2(3-indolyl))]-NH2) were 3.1 µM, 3.1 µM, 113.9±1.7%, 10.1 µM and 21.5 µM.
With `C[C@@H](c1ccccc1)N(CC(N)=O)C(=O)CN(C(=O)CN(CCCCN)C(=O)CN(C(=O)CN(C(=O)CN(CCCCN)C(=O)CN(C(=O)CN(C(=O)CN(CCCCN)C(=O)CN(CCc1c[nH]c2ccccc12)C(=O)CN(C(=O)CNCCCCN)[C@@H](C)c1ccccc1)[C@@H](C)c1ccccc1)[C@@H](C)c1ccccc1)[C@@H](C)c1ccccc1)[C@@H](C)c1ccccc1)[C@@H](C)c1ccccc1` [10-AcOH], the “MIC S. aureus ATCC25923” value against S. aureus ATCC 25923 (ATCC 25923) is reported as 1.6 µM (≈ 2.97 µg/mL). The “MIC E. coli ATCC25922” value in the series on E. coli ATCC 25922 stood at 6.3 µM (≈ 11.7 µg/mL). Further, in the series on rat erythrocytes, the “Hmax (100 µM)” value is given as 102.3±11.3%. Also, in the series with rat erythrocytes (red cells of rat), the HC10 is recorded as 14.1 µM and the HC50 stood at 29.4 µM.
On the same counts, the results for `C[C@@H](c1ccccc1)N(CC(N)=O)C(=O)CN(CCCCN)C(=O)CN(CCCCN)C(=O)CN(C(=O)CN(C(=O)CN(CCCCN)C(=O)CN(C(=O)CN(C(=O)CN(CCCCN)C(=O)CN(CCc1c[nH]c2ccccc12)C(=O)CN(CCc1c[nH]c2ccccc12)C(=O)CNCCCCN)[C@@H](C)c1ccccc1)[C@@H](C)c1ccccc1)[C@@H](C)c1ccccc1)[C@@H](C)c1ccccc1` [32-AcOH] are 6.3 µM (≈ 11.7 µg/mL), 6.3 µM (≈ 11.7 µg/mL), 13.8±1.1%, 83.0 µM and greater than 100 µM.
On the same counts, the results for `C[C@@H](c1ccccc1)N(CC(N)=O)C(=O)CN(C(=O)CN(CCCCN)C(=O)CN(C(=O)CN(CCc1c[nH]c2ccccc12)C(=O)CN(CCCCN)C(=O)CN(CCc1c[nH]c2ccccc12)C(=O)CN(C(=O)CN(CCCCN)C(=O)CN(C(=O)CN(C(=O)CNCCCCN)[C@@H](C)c1ccccc1)[C@@H](C)c1ccccc1)[C@@H](C)c1ccccc1)[C@@H](C)c1ccccc1)[C@@H](C)c1ccccc1` [15-HCl] are 3.1 µM, 6.3 µM, 33.4±9.7%, 50.4 µM and greater than 100 µM.
`CC[C@H](C)[C@H](N)C(=O)N[C@@H](CC(C)C)C(=O)N[C@@H](CCCNC(=N)N)C(=O)N[C@@H](Cc1c[nH]c2ccccc12)C(=O)N1CCC[C@H]1C(=O)N[C@@H](Cc1c[nH]c2ccccc12)C(=O)N[C@@H](Cc1c[nH]c2ccccc12)C(=O)N1CCC[C@H]1C(=O)N[C@@H](Cc1c[nH]c2ccccc12)C(=O)N[C@@H](CCCNC(=N)N)C(=O)N[C@@H](CCCNC(=N)N)C(=O)N[C@@H](CCCCN)C(N)=O` [Omiganan, reference compound] (H-ILRWPWWPWRRK-NH2): the “HPLC elution (%ACN)” value in series [1] amounted to 45.7 %ACN. Besides, the “MIC S. aureus ATCC25923” value with S. aureus ATCC 25923 (Table S2, broth dilution, MHB2, 37 °C 24 h, max 25 µM, mean of triplicate) was found to be 12.5 µM (≈ 22.2 µg/mL). Besides, in the series with rat erythrocytes, the “H max (100 µM)” value is reported as 0% and the “Hmax (100 µM)” value came out at 0%. In the series with rat erythrocytes (pH 7.4), this compound showed an HC10 greater than 100 µM and an HC50 greater than 100 µM.

Values taken from article PMC10460844, “Real‐Time Monitoring of Multitarget Antimicrobial Mechanisms of Peptoids Using Label‐Free Imaging with Optical Diffraction Tomography” (Advanced Science, 2023).
